Measurements from patent publication US20060183794A1, “Drug composition containing nf-kb inhibitor” (priority 2002, published 2006).

Key:
Assay type in all cases: cell-based
[1] = molecular target: T1, NF-κB (Homo sapiens, UniProt P19838+Q04206); experiment: Gel shift assay of constitutive NF-κB activation in Hodgkin's lymphoma cell lines; set-up: endogenous in cells; host or cells: HL cell lines KMH2, L428, L540, HDLM2 (A30: KMH2 treated with antitumor agents)
Description: The ATL cell lines (MT-1 and TL-Om1) and the control cell lines (K562 and Jurkat+TNF), 2×10^6 cells each, were treated with 10 μg/ml DHM2EQ for 12 hours, and nuclear extract was prepared from each cell line. Likewise, nuclear extract was prepared also from the cell lines not treated with DHM2EQ. MT-1 and TL-Om1 are the cell lines transformed with HTLV-1; NF-κB is activated in these cell lines. K562 (myelocytic leukemia cell line) is a cell line in which constitutive NF-κB is not confirmed (a negative control), and Jurkat+TNF is a […] consensus oligomers (Promega) were end-labeled with [γ-^32P]-ATP and polynucleotide kinase (PNK) to prepare ^32P-labeled NF-κB probes.
The equivalent of 2 μg of nuclear extract protein was mixed with NF-κB probes (the equivalent of 10,000 cpm) in a volume of 20 μl and reacted at room temperature for 30 min. The solution after the reaction was subjected to 7.5% polyacrylamide gel electrophoresis. The gel was then dried and exposed to an X-ray film.
The HL cell lines, KMH2, L428, L540, and HDLM2, and the control cell line K562 (2×10^6 cells each) were treated with 10 μg/ml DHMEQ for 12 hours, and nuclear extract was prepared from each cell line. The gel shift assay was performed in the same method as in Example 4 (1) and the inhibitory effect on NF-κB was examined. […] Cell line K562 (myelocytic leukemia cell line) is a cell line in which constitutive activation of NF-κB is not observed, and thus used as the negative control. On the other hand, the TNF-treated Jurkat (Jurkat+TNF) was used as the positive control.
Next, the HL cell lines KMH2 and L540 were treated with 10 μg/ml DHMEQ and nuclear extract was prepared from each cell line. The gel shift assay was performed in the same method as in Example 4 (1) and the time-course inhibitory effect on NF-κB was examined.
Thus, investigation was performed to determine whether these signals have NF-κB-specific subunits of DHMEQ resistance. Further, the HL cell lines, KMH2, L428L-540, and HDLM2 were treated with 5 μg/ml DHMEQ for 12 hours, and the remaining component of NF-κB was supershifted with antibodies against p50, p65, and c-Rel according to the same method as described in Example 1.
Target sequence in this assay (P19838 1-433 limits assumed): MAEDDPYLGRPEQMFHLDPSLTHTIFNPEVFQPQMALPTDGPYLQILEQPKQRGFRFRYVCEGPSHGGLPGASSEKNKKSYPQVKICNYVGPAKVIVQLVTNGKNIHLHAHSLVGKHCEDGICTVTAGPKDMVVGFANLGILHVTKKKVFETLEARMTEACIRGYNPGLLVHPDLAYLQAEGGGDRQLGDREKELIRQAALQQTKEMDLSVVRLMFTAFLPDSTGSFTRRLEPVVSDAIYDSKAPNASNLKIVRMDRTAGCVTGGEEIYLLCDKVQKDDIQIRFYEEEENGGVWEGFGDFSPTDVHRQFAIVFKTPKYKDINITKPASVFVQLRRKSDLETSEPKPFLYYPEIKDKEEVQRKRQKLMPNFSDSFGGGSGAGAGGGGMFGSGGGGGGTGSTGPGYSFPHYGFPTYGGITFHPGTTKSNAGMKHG
Target sequence in this assay (Q04206 whole entry): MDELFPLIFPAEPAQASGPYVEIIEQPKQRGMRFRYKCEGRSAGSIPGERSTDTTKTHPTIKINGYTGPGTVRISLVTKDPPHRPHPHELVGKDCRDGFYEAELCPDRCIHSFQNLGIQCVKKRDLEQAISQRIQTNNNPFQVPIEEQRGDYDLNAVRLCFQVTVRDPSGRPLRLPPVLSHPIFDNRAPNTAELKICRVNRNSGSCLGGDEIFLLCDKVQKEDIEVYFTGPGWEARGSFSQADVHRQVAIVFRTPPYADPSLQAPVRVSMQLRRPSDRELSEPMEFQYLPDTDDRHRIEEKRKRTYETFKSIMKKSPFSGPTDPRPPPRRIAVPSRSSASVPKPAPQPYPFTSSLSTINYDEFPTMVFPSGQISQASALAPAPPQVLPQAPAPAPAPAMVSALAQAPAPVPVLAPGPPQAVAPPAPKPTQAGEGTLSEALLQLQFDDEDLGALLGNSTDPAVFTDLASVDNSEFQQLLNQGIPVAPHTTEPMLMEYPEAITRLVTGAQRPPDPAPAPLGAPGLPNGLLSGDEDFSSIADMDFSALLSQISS

[2] = molecular target: T1, NF-κB; experiment: Gel shift assay of NF-κB/DNA binding in TNF-α-treated MCF-7 cells; set-up: endogenous in cells; host or cells: MCF-7 cells treated with TNF-α; details: 30 min
Description: MCF-7 cells (endowed by Professor Adrian L. Harriswere, Oxford University) were plated in portions of 4 ml at 1×10^5 cells/ml in […] (2 dishes per condition). On the next day, the culture medium in the 60 mm dishes was adjusted to 2 ml, treated with DHMEQ prepared at 1, 3, and 10 μg/ml for 2 hours, and subsequently, with TNF-α at 20 ng/ml. The culture medium in 60 mm dishes was extracted with a sucker 30 min after TNF-α treatment, cells were washed twice with PBS− for external application, 1 ml of cold PBS− was added, the cells were scraped with a rubber policeman (twice), and transferred to a 15 ml centrifuge tube. Cells were collected from two 60 mm dishes into a 15 ml centrifuge tube, centrifuged at 1,000 rpm for 5 min, and the supernatant was removed. To this, 700 μl of cold PBS− was added. […] The following operations were performed in ice. […] Next, collected nuclei were suspended in 40 μl buffer C (20 mM HEPES-KOH: pH7.9 […] 25% glycerol, 420 mM NaCl, 1.5 mM MgCl2, 0.2 mM EDTA, 0.5 mM DTT, 0.2 mM PMSF) and allowed to stand for 20 min. […]
Next, a Nick column was installed in the stand and a waste-liquid bottle was placed under the column. […] The column, fraction 1, and fraction 2 were measured individually with a Geiger counter and the readings confirmed fraction 2>the column>fraction 1. […]
Target sequence in this assay (Q04206 whole entry): as above
Target sequence in this assay (P19838 1-433 limits assumed): as the sequence (P19838 1-433 limits assumed) above

[3] = molecular target: T1, NF-κB; experiment: Reporter gene (luciferase) assay of NF-κB transcriptional activity in ATL cell lines; set-up: endogenous in cells; details: MT-1 and TL-Om1; 5 μg/ml DHM2EQ; remaining activity vs untreated
Description: To examine the transcriptional activity of NF-κB, by using a luciferase construct (6 kB-Luc plasmid), containing six tandem copies of the NF-κB binding sequence, driven with an artificial promoter as a reporter, this plasmid DNA was transiently introduced into the ATL cell lines (MT-1 and TL-Om1) as well as into the control cell line (K562) (transfected on a scale of 2×10^5 cells/transfection using DMRIE-C (Invitrogen)). After 12 hours, treatment with 5 μg/ml DHM2EQ was started. Cells were recovered after 48 hours and the transcriptional activity of NF-κB was evaluated as the enzyme activity of the luciferase. The cell lines not treated with DHM2EQ were also evaluated in the same manner. All experiments were performed three times to obtain average values as well as standard deviations.
Target sequence in this assay (Q04206 whole entry): as the sequence (Q04206 whole entry) above
Target sequence in this assay (P19838 1-433 limits assumed): as the sequence (P19838 1-433 limits assumed) above

SMILES: O=C(NC1=CC(=O)C2OC2C1O)c1ccccc1O (stereo not shown) [DHMEQ, 5,6-epoxy-4-hydroxy-3-salicyloylamino-2-cyclohexenone]
- signals by NF-κB (gel shift) ([1]; KMH2, L428, L540, HDLM2, 10 μg/ml, 12 hours): almost lost
- persistence of inhibition of NF-κB activation ([1]; KMH2 and L540, 10 μg/ml): sustained even after a lapse of 16 hours
- activation of NF-κB, time course (gel shift) ([1]; KMH2 and L540, 10 μg/ml, 1 hour after treatment): almost inhibited
- remaining NF-κB signals after DHMEQ treatment ([1]; L428 and KMH2): weak signals remain
- binding between NF-κB and DNA ([2]; DHMEQ 10 μg/ml, TNF-α 20 ng/ml): completely inhibited
- binding between NF-κB and DNA ([2]; DHMEQ 1, 3, 10 μg/ml for 2 hours, then TNF-α 20 ng/ml): concentration-dependently inhibited
- luciferase activity suppressed to (NF-κB transcriptional activity) [3]: about 50%
